Laboratory results from PubChem BioAssay (NCI).
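GI50 = concentration required for 50% inhibition of growth. The concentration for full growth arrest is given as TGI.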

Key:
Experiment in all cases: NCI-60 cell line screen, 384-well format
[1] = test system: SK-MEL-5 melanoma
[2] = test system: MDA-MB-435 melanoma
[3] = test system: TK-10 renal
[4] = test system: RXF 393 renal
[5] = test system: NCI-H23 lung
[6] = test system: KM12 colon
[7] = test system: MDA-MB-231 breast
[8] = test system: EKVX NSCLC
[9] = test system: CCRF-CEM leukemia
[10] = test system: OVCAR-3 ovarian
[11] = test system: NCI-H460 NSCLC
[12] = test system: U251 glioblastoma
[13] = test system: HCT-15 colon
[14] = test system: DU-145 prostate
[15] = test system: COLO 205 colon
[16] = test system: RPMI-8226 leukemia
[17] = test system: OVCAR-8 ovarian
[18] = test system: SK-OV-3 ovarian
[19] = test system: MDA-MB-468 breast
[20] = test system: SF-268 CNS
[21] = test system: SF-295 CNS
[22] = test system: SK-MEL-28 melanoma
[23] = test system: HOP-62 NSCLC
[24] = test system: OVCAR-5 ovarian
[25] = test system: UACC-257 melanoma
[26] = test system: CAKI-1 renal
[27] = test system: HS 578T breast
[28] = test system: A498 renal
[29] = test system: A549 NSCLC
[30] = test system: ACHN renal
[31] = test system: HOP-92 NSCLC
[32] = test system: M14 melanoma
[33] = test system: SN12C renal
[34] = test system: IGROV1 ovarian
[35] = test system: NCI/ADR-RES ovarian
[36] = test system: LOX IMVI melanoma
[37] = test system: 786-0 renal
[38] = test system: MCF7 breast
[39] = test system: SNB-19 CNS
[40] = test system: SNB-75 CNS
[41] = test system: UO-31 renal
[42] = test system: T-47D breast
[43] = test system: UACC-62 melanoma
[44] = test system: PC-3 prostate
[45] = test system: SW-620 colon
[46] = test system: HT29 colon
[47] = test system: HCC-2998 colon
[48] = test system: HL-60(TB) leukemia
[49] = test system: MOLT-4 leukemia
[50] = test system: NCI-H226 lung
[51] = test system: MALME-3M melanoma
[52] = test system: SR leukemia
[53] = test system: SF-539 CNS
[54] = test system: NCI-H322M lung
[55] = test system: K-562 leukemia
[56] = test system: OVCAR-4 ovarian
[57] = test system: NCI-H522 lung
[58] = test system: BT-549 breast

SMILES: CCC[C@H](N[C@H]1CCc2cc(F)cc(F)c2C1)C(=O)Nc1cn(C(C)(C)CNCC(C)(C)C)cn1
- GI50 [1]: 11.4 µM
- TGI [1]: 23.6 µM
- GI50 [2]: 20.7 µM
- TGI [2]: 61.2 µM
- GI50 [3]: 21.4 µM
- TGI [3]: 90 µM
- GI50 [4]: 11.1 µM
- TGI [4]: 27.1 µM
- GI50 [5]: 12.1 µM
- TGI [5]: 29.6 µM
- GI50 [6]: 16.1 µM
- TGI [6]: 35.3 µM
- GI50 [7]: 12.2 µM
- TGI [7]: 32.1 µM
- GI50 [8]: 19.2 µM
- TGI [8]: 71.8 µM
- GI50 [9]: 6.62 µM
- TGI [9]: 20 µM
- GI50 [10]: 11.1 µM
- TGI [10]: 23.5 µM
- GI50 [11]: 15.1 µM
- TGI [11]: 29.4 µM
- GI50 [12]: 17.3 µM
- TGI [12]: 33.1 µM
- GI50 [13]: 12 µM
- TGI [13]: 25.6 µM
- GI50 [14]: 20.6 µM
- TGI [14]: 74.6 µM
- GI50 [15]: 21.3 µM
- TGI [15]: 97.7 µM
- GI50 [16]: 3.03 µM
- TGI [16]: 14.1 µM
- GI50 [17]: 22.3 µM
- TGI [17]: > 100 µM
- GI50 [18]: 15.8 µM
- TGI [18]: 33.2 µM
- GI50 [19]: 0.603 µM
- TGI [19]: 6.55 µM
- GI50 [20]: 19.8 µM
- TGI [20]: 50.8 µM
- GI50 [21]: 14.6 µM
- TGI [21]: 30.2 µM
- GI50 [22]: 14.7 µM
- TGI [22]: 29.3 µM
- GI50 [23]: 17.7 µM
- TGI [23]: 51.2 µM
- GI50 [24]: 21.4 µM
- TGI [24]: 53.9 µM
- GI50 [25]: 5.51 µM
- TGI [25]: 21 µM
- GI50 [26]: 14.2 µM
- TGI [26]: 31.6 µM
- GI50 [27]: 13 µM
- TGI [27]: 31.7 µM
- GI50 [28]: 11.7 µM
- TGI [28]: 26.6 µM
- GI50 [29]: 22.2 µM
- TGI [29]: > 100 µM
- GI50 [30]: 19.9 µM
- TGI [30]: 69.4 µM
- GI50 [31]: 11.5 µM
- TGI [31]: 26.2 µM
- GI50 [32]: 14.1 µM
- TGI [32]: 27.9 µM
- GI50 [33]: 33.1 µM
- TGI [33]: > 100 µM
- GI50 [34]: 25.9 µM
- TGI [34]: > 100 µM
- GI50 [35]: 11.1 µM
- TGI [35]: 27.1 µM
- GI50 [36]: 17.3 µM
- TGI [36]: 31.3 µM
- GI50 [37]: 14.5 µM
- TGI [37]: 29.9 µM
- GI50 [38]: 6.74 µM
- TGI [38]: 23.1 µM
- GI50 [39]: 21.9 µM
- TGI [39]: 67.3 µM
- GI50 [40]: 19.4 µM
- TGI [40]: 71 µM
- GI50 [41]: 14.9 µM
- TGI [41]: 32.4 µM
- GI50 [42]: 6.21 µM
- TGI [42]: 40 µM
- GI50 [43]: 14.1 µM
- TGI [43]: 27.4 µM
- GI50 [44]: 6.56 µM
- TGI [44]: 21.8 µM
- GI50 [45]: 21.4 µM
- TGI [45]: 42.2 µM
- GI50 [46]: 9.66 µM
- TGI [46]: 22.7 µM
- GI50 [47]: 7.48 µM
- TGI [47]: 21.6 µM
- GI50 [48]: 10.7 µM
- TGI [48]: 22.6 µM
- GI50 [49]: 3.46 µM
- TGI [49]: 15 µM
- GI50 [50]: 15.6 µM
- TGI [50]: 40.4 µM
- GI50 [51]: 2.64 µM
- TGI [51]: 14.4 µM
- GI50 [52]: 3.71 µM
- TGI [52]: 15.4 µM
- GI50 [53]: 18 µM
- TGI [53]: 32.1 µM
- GI50 [54]: 26.3 µM
- TGI [54]: 92.6 µM
- GI50 [55]: 5.58 µM
- TGI [55]: 17 µM
- GI50 [56]: 13.8 µM
- TGI [56]: 61.9 µM
- GI50 [57]: 18.4 µM
- TGI [57]: 48.4 µM
- GI50 [58]: 6.44 µM
- TGI [58]: 26.2 µM
